Data published in the METLIN SMRT retention time set (Domingo-Almenara et al. 2019).

Experiment: gradient 5% acetonitrile 3 min, to 50% in 2 min, to 85% in 15 min, held 3 min, 100 µL/min
Settings: column: Zorbax Extend-C18 2.1 x 50 mm; eluents: water / acetonitrile, 0.1% formic acid
Outline: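 Pure standards were run in mixtures of ~100 molecules by HPLC coupled to a quadrupole time-of-flight mass spectrometer. The column was a Zorbax Extend-C18 (2.1 × 50 mm, 1.8 μm) at 100 μL/min, with water and acetonitrile each containing 0.1% formic acid, in positive and negative ionization mode. Dead and dwell volumes were 40 μL and 900 μL. Retention time was taken from computationally picked adduct peaks, each manually inspected, with data collected over 3 months.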

Row | Structure (SMILES) | RP-LC retention time [s]
1 | COc1ccc(-c2nnc(COc3ccc(NC(=O)c4ccnc(Cl)c4)cc3)o2)cc1 | 868
2 | C=CCn1nc2ccc(S(=O)(=O)N3CCC(C)CC3)cn2c1=O | 843
3 | O=c1c2sccc2n(Cc2nc(-c3ccc(Br)cc3)no2)c(=O)n1Cc1ccccc1 | 1200
4 | CCc1ccc(N2C(=O)CN(S(=O)(=O)c3ccccc3)CC2(C)C(=O)NC2CCCC2)cc1 (configuration not stated) | 821
5 | CN1Cc2ccccc2-n2ccnc2C12CCN(C(=O)c1cccc(F)c1)CC2 | 614
6 | COc1ccc(Cc2nc3ccccc3n2CC(=O)N2CCCCCC2)cc1OC | 653
7 | CCc1cc(=O)n(CC(=O)Nc2ccc(Cl)cc2)c(N)n1 | 618
8 | Cc1ncc2c(n1)C[C@@H]1CC[C@H]2N1C(=O)Nc1ccccc1 | 636
9 | Nc1nc(CC(=O)Nc2ccc(CCNC[C@H](O)c3ccccc3)cc2)cs1 | 591
10 | O=C(NCc1cccc2ccccc12)NCc1nnnn1-c1ccccc1 | 751
11 | CCCn1nc(CNC(=O)c2ccc3c(c2)OCO3)c2ccccc21 | 843
12 | O=C(OCc1cc(-c2cccs2)on1)c1cc(-c2ccco2)n[nH]1 | 786
13 | Cc1cc(SCC(=O)Nc2ccccc2Br)nc(-c2ccc(F)cc2)n1 | 1170
14 | O=C(c1cc2ccccc2[nH]1)N1CCN(c2cc(-c3cccs3)[nH]n2)CC1 | 832
15 | C=CCn1c(=O)c2ccccc2n(Cc2nc(-c3cccc(Cl)c3)no2)c1=O | 1110
16 | O=C(Cc1ccsc1)NCC1CCCCC(=O)N1 (configuration not stated) | 619
17 | Cc1ccc(N(Cc2ccccc2)S(=O)(=O)c2ccc3nnc(C)n3c2)cc1 | 884
18 | CCC(=O)N1CCc2c(C(=O)NC3CCCCCC3)cccc21 | 887
19 | Cc1ccc(CN2C(=O)CC(N3CCCCC3)C2=O)cc1 (configuration not stated) | 580
20 | O=C(CN1CCN(Cc2ccccc2F)C1=O)N1CCN(C2CCCCC2)CC1 | 613
21 | Cc1ccc(-c2cc3n(n2)CCCN(C(=O)c2cc(CN4CCOCC4)on2)C3)o1 | 617
22 | COC(=O)c1ccc(C2Nc3ccc(C)cc3[C@H]3OCC[C@@H]23)cc1 (some centres not stated) | 1050
23 | N#Cc1c(NC(=O)c2cccnc2)sc2c1CCCCC2 | 834
24 | Cc1cc(NC(=O)c2ncccn2)no1 | 577
25 | Cn1nc(-c2nnc(-c3ccc(F)cc3)o2)c2c1CCN(S(=O)(=O)c1ccc(F)c(Cl)c1)C2 | 990
26 | O=c1c2cc(-c3ccc4c(c3)OCO4)nn2ccn1Cc1nc(-c2ccc(F)cc2)no1 | 1020

Row | Structure (SMILES) | RP-LC retention time [s]
27 | CCOC(=O)c1ccccc1NC(=O)Cn1c(-c2ccccc2)nc(C)cc1=O | 1330
28 | Cc1ccccc1Nc1c(-c2ccccc2)nc2ccc(Cl)cn12 | 869
29 | O=C(CCC(=O)N1CC2CCCN2c2ccccc21)NCCc1cccs1 (configuration not stated) | 906
30 | CN1C(=O)c2cccnc2Sc2cc(NC(=O)c3ccc(Br)o3)ccc21 | 788
31 | CCN1CCCn2cc(S(=O)(=O)N3CCN(c4ccc(Cl)cc4)CC3)cc2C1=O | 894
32 | O=C(NC1CC1)c1ncoc1-c1ccccc1C(=O)N1CCCCC1 | 689
33 | COc1cc(NC(=O)c2ncoc2-c2ccc(C)o2)cc(OC)c1OC | 920
34 | Cc1cccc(-c2nnc(CC(=O)NC3CCCC3)o2)c1 | 658
35 | CCN1CCN(S(=O)(=O)c2ccc(/C=C\c3onc(C)c3NC(=O)C3CC3)cc2)CC1 | 639
36 | Cc1ccc(S(=O)(=O)Cc2ccc(-c3nc(-c4cccc(-c5ccnn5C)c4)no3)cc2)cc1 | 1140
37 | O=S(=O)(c1ccc2c(c1)-c1oncc1CO2)N1CCN(C(c2ccccc2)c2ccccc2)CC1 | 1130
38 | O=C(NCC1CCCCC1)c1ccc(NC(=O)C2CCC2)cc1N1CCOCC1 | 930
39 | COC(=O)c1c(-c2cccc(Cl)c2)noc1NCc1ccccn1 | 897
40 | O=C(CN1C(=O)CCc2cc(Br)ccc21)Nc1ccc2c(c1)OCCO2 | 912
41 | Cc1sc(-c2noc(C3CCC3)n2)cc1S(=O)(=O)N1CCC(C(=O)NCC2CCCO2)CC1 (configuration not stated) | 937
42 | Cc1nnc(-c2ccc3ccn(CC(=O)NCCc4ccc(Cl)cc4)c3c2)o1 | 824
43 | Cc1ccc(-c2nnc(-c3nn(C)c4c3CN(S(=O)(=O)c3cccc(C)c3)CC4)o2)cc1 | 998
44 | Cc1oc(-c2ccccc2)nc1CN1C(=O)C(O)(c2cccc(F)c2)c2ccccc21 (configuration not stated) | 1100
45 | CCc1ccc(C2CC(=O)Nc3c(S(=O)(=O)c4ccccc4)csc32)cc1 (configuration not stated) | 1060
46 | COc1ccc(Cl)cc1NC(=O)CSc1nnc(-c2ccco2)n1-n1cccc1 | 885
47 | Cc1c(NC(=O)OC[C@@H]2COCCN2)cn2ncnc(Nc3ccc4c(cnn4Cc4cccc(F)c4)c3)c12 | 674
48 | COc1ccc(C(=O)NC2CCN(c3cc(C)cc(C)c3)C2=O)cc1F (configuration not stated) | 901
49 | O=C(/C=C/c1ccccc1Cl)c1ccc(O)cc1 | 944
50 | COC(=O)c1cc2c(=O)n(-c3ccc(Cl)c(Cl)c3)ccc2nc1C | 915
51 | Cc1nn(C)c(C)c1CCC(=O)N1CCN(c2ncccn2)CC1 | 564

Next, values leading:

Row | RP-LC retention time [s] | Structure (SMILES)
52 | 802 | CCCNC(=O)C1CCCN(c2nc3ncn(CC(=O)Nc4cccc(C(C)C)c4)c(=O)c3s2)C1 (configuration not stated)
53 | 843 | CCOC(=O)c1[nH]c(C)c(CCC(=O)N2CCC(C(=O)NCCc3ccc(C)cc3)CC2)c1C
54 | 870 | COc1ccc(N2CC(c3nc(-c4cccc(OC)c4OC)no3)CC2=O)cc1 (configuration not stated)
55 | 948 | COc1ccc(N2CC(c3noc(-c4ccc(F)c(F)c4)n3)CC2=O)cc1 (configuration not stated)
56 | 856 | COc1cccc(CCC(=O)NC2(c3nc(C)no3)CCCCC2)c1
57 | 757 | COc1ccc(NC(=O)Cn2c(N3CCc4ccccc4C3)nc(C)cc2=O)cc1
58 | 767 | CCc1cc(=O)n(CC(=O)Nc2ccc(C)cc2C)c(N2CCOCC2)n1
59 | 1070 | O=C(C1CCN(S(=O)(=O)c2cc(-c3noc(C4CC4)n3)cs2)CC1)N1CCc2ccccc21
60 | 1300 | Cc1cc(C)c(NC(=O)Cn2nc(N3CCC(C)CC3)c3ccccc3c2=O)c(C)c1
61 | 621 | CCc1nc2ccc(-c3noc(C(C)NC(=O)c4ccco4)n3)cc2n1CC (configuration not stated)
62 | 921 | COc1ccc(NC(=O)C2CCN(S(C)(=O)=O)c3ccccc3O2)cc1Cl (configuration not stated)
63 | 636 | Cc1nc(-c2csc(S(=O)(=O)N3CCC(C(=O)NCc4ccccn4)CC3)c2)no1
64 | 661 | COc1ccc(CNC(=O)C2CC(=O)N(c3n[nH]c4cccc(F)c34)C2)cc1OC (configuration not stated)
65 | 720 | N#Cc1cccc(C(=O)N2CCCn3nc(-c4cccs4)cc3C2)c1
66 | 1000 | COc1ccc(CCS(=O)(=O)N(Cc2ccsc2)C2CC2)cc1
67 | 993 | COc1ccc(NC(=O)Cn2cccc2-c2nnc(-c3ccccc3)o2)c(OC)c1
68 | 616 | CN(C)CCN(C(=O)CN1C(=O)c2ccccc2C1=O)c1nc2ccc(Cl)cc2s1
69 | 1080 | CCOc1ccccc1-c1noc(-c2nnn3c2COC(c2cccc(OC)c2)C3)n1 (configuration not stated)

Row | RP-LC retention time [s] | Structure (SMILES)
70 | 556 | CN(C)c1ccc(CNC(=O)c2ccc3ncnc(N4CCCC4)c3c2)cc1
71 | 1020 | CCOc1ccc(/C=C/C(=O)Nc2nc(-c3ccc4c(c3)N(CC)C(=O)CO4)cs2)cc1OC
72 | 755 | CC1(C)C(=O)N(CCN2CCC(C(=O)c3ccc(F)cc3)CC2)c2ccccc21
73 | 894 | Cc1cccc(CNC(=O)c2cccc(C3CCCN(C(=O)NC(C)C)C3)c2)c1 (configuration not stated)
74 | 926 | CCc1ccc(C2=C(C)C(N3CCCN(C(=O)NCCC(C)C)CC3)=NS2(=O)=O)cc1
75 | 1070 | COc1ccc(S(=O)(=O)N2CCCC(C(=O)NCCC3=CCCCC3)C2)cc1Cl (configuration not stated)
76 | 537 | O=C(c1nccc2ccccc12)N1CCC(Nc2ncnc3c2CCC3)C1 (configuration not stated)
77 | 596 | Cc1cc(N2CCN(C(=O)Cc3ccc(F)cc3)CC2)nc2nncn12
78 | 614 | COc1ccccc1-c1nc(SCC(=O)N2CCC(C(N)=O)CC2)n[nH]1
79 | 1030 | Cc1cc(NC(=O)CCS(=O)(=O)c2ccc(F)cc2)n(-c2nc3ccccc3s2)n1
80 | 669 | COc1cccc(-c2ccc3nc(N4CCC(C(=O)NCCN(C)C)CC4)sc3n2)c1
81 | 821 | COc1ccc(-c2cn3ccn(-c4cccc(F)c4)c(=O)c3n2)cc1
82 | 852 | COc1ccccc1CNC(=O)C1CCCN(C(=O)c2cc3sccc3n2C)C1 (configuration not stated)
83 | 570 | CCN(CC)CCCNC(=O)C1CCN(c2nc3cccnc3s2)CC1
84 | 712 | N#Cc1cccc(C(=O)NC2CCN(c3cc(-c4ccc(F)cc4)[nH]n3)C2)c1 (configuration not stated)
85 | 901 | Cc1ccc(NC(=O)C2CCN(C(=O)c3ncn4c3COC(c3ccc(F)cc3)C4)CC2)cc1Cl (configuration not stated)
86 | 702 | CCN1CCn2c(nc3cc(C(=O)NCC4CCCCC4)ccc32)C1=O
87 | 775 | CCNc1cc(C)nc(N2CCN(C(=O)c3cccc(Br)c3)CC2)n1
